Patent US8211941B2, “Antagonists of the transient receptor potential vanilloid 1 and uses thereof” (The Board of Regents of the University of Texas System, priority 2007, dated 2012)

Key:
[1] = tested on: vagal afferent nerves (TRPV1) in the stomach; assay: Nausea and vomiting induced by balloon inflation in the jejunum, behavioral emetic score; format: in vivo, dog; details: dogs, one week after 250 ml of a 100 nM solution sprayed endoscopically onto gastric mucosa; baseline 26.3±4.0; p=0.01
Protocol: (§1) Nausea and vomiting was induced using either balloon distention or intra-venous infusion of vasopressin (0.5 U/Kg infused over 20 minutes). Untreated represents control or baseline mean score of the emetic response was 26.3±4.0 and 29.0±6.2 for balloon distention and vasopressin stimuli respectively. Following, Resiniferatoxin infusion (250 ml of a 100 nM solution): the mean score with balloon distention was 11.7±4.2 (p=0.01) while the mean score with vasopressin was 16.3±5 (p=0.05).
(§2) Four dogs with surgically created jejunocutaneous fistulae 20 cm distal to the pylorus were used in this study. Nausea and vomiting were induced using two different stimuli, both of which are vagally dependent, at least in part: (1) Balloon inflation in the jejunum (2) Intravenous vasopressin infusion (0.5 U/Kg infused over 20 minutes). Nausea was assessed using a previously validated behavioral scoring system in addition to counting actual episodes of vomiting. After baseline observations, resiniferatoxin (250 ml of a 100 nM solution) was administered endoscopically using a spray catheter to coat the mucosal lining of the stomach under general anesthesia into the stomach. One week later, the response to balloon distention and vasopressin infusion was recorded again.

[2] = General observation of dogs after endoscopic resiniferatoxin spray; format: in vivo, dog; details: after endoscopic gastric spray of 250 ml of a 100 nM solution
Protocol: as §2

[3] = tested on: dogs; details: subcutaneous; cited from earlier work
[4] = tested on: Suncus murinus; details: subcutaneous; cited from earlier work
[5] = tested on: ferrets; details: subcutaneous; cited from earlier work
[6] = tested on: ferrets; details: subcutaneous; cited from earlier work; remark: listed apart in the source
[7] = tested on: vagal afferent nerves (TRPV1) in the stomach; assay: Nausea and vomiting induced by intravenous vasopressin infusion, behavioral emetic score; format: in vivo, dog; details: dogs, vasopressin 0.5 U/Kg iv over 20 minutes, one week after 250 ml of a 100 nM solution sprayed endoscopically; baseline 29.0±6.2; p=0.05
Protocol: as §1, §2

C=C(C)[C@]12C[C@@H](C)[C@@]34O[C@](Cc5ccccc5)(O[C@@H]1[C@@H]3C=C(COC(=O)Cc1ccc(O)c(OC)c1)C[C@]1(O)C(=O)C(C)=C[C@@H]41)O2 [Resiniferatoxin]
mean score of the emetic response with balloon distention [1]: 11.7±4.2
body weight change [2]: minor weight loss
general health of dogs [2]: appeared healthy
effect on acute and delayed cisplatin and apomorphine induced emesis [3]: inhibited
emetic / anti-emetic properties [4]: initial emetic followed by anti-emetic properties
effect on acute and delayed cisplatin and apomorphine induced emesis [5]: inhibited
effect on copper sulphate, whole body radiation and Loperamide induced emetic response [6]: blocked
mean score of the emetic response with vasopressin [7]: 16.3±5
